Measured values as given in PMC11339798, “Dual inhibitors of Pseudomonas aeruginosa virulence factors LecA and LasB” (Chemical Science, 2024).

How the values were obtained:
[1] = system: LecA-FITC binding to human A549 cells; test: Inhibition of LecA-FITC adhesion to A549 cells by fluorescence microscopy; format: cell-based; settings: 100 μM compound, 10 μM LecA-FITC, 4 °C, 30 min
Method: LecA-mediated cell adhesion is crucial for the initial infection and host-cell invasion of P. aeruginosa. Therefore, compounds 1 and 2, a combination of 1+2 and the dual inhibitor 12 were assessed for their ability to inhibit LecA-binding to human A549 cells. 10 μM of LecA-FITC and different concentrations of the respective compounds were incubated at 4 °C for 30 min with confluent A549 cells.
10 min, facilitating the separation of bacterial cells from the supernatant. The latter was filtered through a 0.22 µm sterile filter and stored at –80 °C until further use. […]
CO2. […] The plates were then incubated for an additional 30 min at 37 °C and then, the UV absorbance was measured using a PHERAstar microplate reader. The test samples were read at a wavelength of 550 nm, while the blank was read at 620 nm. At last, the data were statistically analyzed and presented graphically using GraphPad Prism 9 (Figure S4 and S5). […]
have any negative effects. The plate was then incubated at 4 °C for 30 min and wells were washed 5 times with PBS prior to imaging via fluorescence microscopy.
Fluorescence image acquisition, processing, and quantification
Fluorescence images were captured using an inverted fluorescence microscope (Leica DMi8) equipped with a 20x objective (HC PL APO CS2 20x/0.75 IMM UV), an FITC filter cube (EX: […]

A549 cells = test: Inhibition of LasB-dependent cytotoxicity of P. aeruginosa PAO1 culture supernatant on A549 cells (MTT); format: cell-based, human; settings: for A549 cell viability under PAO1 culture supernatant: 10% (v/v) PAO1 supernatant
Method: Next, we set out to analyze the ability of the dual inhibitor 12 and the individual treatment or combination of galactoside 1 and thiol 2 to reduce LasB-dependent cytotoxicity from P. aeruginosa PAO1 culture supernatant on A549 cells. None of the investigated compounds influenced A549 cell viability at 100 μM in the absence of bacterial culture supernatant (Fig. S4 ^†). […]
In vitro evaluation of 12 and a combination of 1 and 2 using P. aeruginosa culture supernatant and A549 cells in a cell viability assay
The A549 cell line, derived from human lung adenocarcinoma, was grown in Dulbecco's Modified Eagle Medium (DMEM) supplemented with 10% Fetal Bovine Serum (FBS) and 1% penicillin-streptomycin. The cells were cultured following standard protocols for cell […]
To prepare the bacterial culture supernatant, individual flasks containing 15 mL of lysogeny broth (LB) culture medium were inoculated with PAO1 or PAO1 ΔlasB strains. Culture flasks were placed on a shaker and incubated at 37 °C and 180 rpm overnight for 18 hours. Following incubation, the bacterial cultures were subjected to centrifugation at 4 °C and 5000 rpm for […]
10 min, facilitating the separation of bacterial cells from the supernatant. The latter was filtered through a 0.22 µm sterile filter and stored at –80 °C until further use.
In a flat bottom 96-well plate (Corning™ Costar™), each well was seeded with 2.5–3.5*10 3 cells in 100 µL DMEM/FCS and then incubated at a temperature of 37 °C with 5% CO2 for 24 hours. Then, compounds 12 and 1 combined with 2 in concentrations of 100 µM, 10 µM, and 1 µM were mixed with 10% (v/v) of culture supernatant of P. aeruginosa PAO1 (DSM 22644, ATCC 15692) in DMEM/FCS. To minimize the potential negative effect of DMSO, the compound was initially dissolved in 99.9% DMSO, and a final assay concentration of 0.5% DMSO was applied. Additionally, the cells were exposed to 10% (v/v) PAO1 ΔlasB culture supernatant to analyze the effect caused by LasB, while DMEM/FCS without any treatment served as a control. The plates were then incubated at 37 °C with 5% CO2 for 24 hours before conducting the MTT assay.
To assess cell viability, the medium in the well plates was aspirated and a single wash was performed using 100 µL of phosphate buffered saline, pH 7.4 (PBS). A solution of 5 mg MTT (3-(4,5-dimethylthiazol-2-yl)-2,5-diphenyl tetrazolium bromide) per mL PBS was prepared and diluted to a concentration of 10% (v/v) in DMEM/FCS. Subsequently, 100 µL of this MTT solution was added to each well, and the plates were incubated at 37 °C for 3 hours with 5%
CO2. After incubation, the MTT solution was carefully removed, and the formazan crystals were dissolved by adding 150 µL of lysis solution (250 mL DMSO, 25 g SDS, and 1.25 mL AcOH) to each well. The plates were then incubated for an additional 30 min at 37 °C and then, the UV absorbance was measured using a PHERAstar microplate reader. The test samples were read at a wavelength of 550 nm, while the blank was read at 620 nm. At last, the data were statistically analyzed and presented graphically using GraphPad Prism 9 (Figure S4 and S5).
Evaluation of compounds 1, 2 and 12 in inhibiting LecA adhesion to A549 cells via […]
The A549 cell line were cultured following the protocols for cell maintenance described above.
In a flat-bottom cell culture black 96-well plate (Greiner Bio-One, #Cat 655090) each well was seeded with 1*104 cells in 100 µL DMEM/FCS and subsequently, incubated overnight at 37 °C with 5% CO2. […]

CC(C)CC(S)C(=O)Nc1ccc(S[C@@H]2O[C@H](CO)[C@H](O)[C@H](O)[C@H]2O)cc1 (some centres unmarked) [Compound 12]
inhibition of binding of LecA-FITC to A549 cells [1]: significantly inhibited the binding of LecA-FITC to A549 cells to the background level | A549 cell viability under PAO1 culture supernatant (A549 cells; 1 μM compound): statistically significant beneficial effect on cell viability | A549 cell viability under PAO1 culture supernatant (A549 cells; 10 μM compound): increase in cell viability compared to the combination of the individual LasB (2) and LecA (1) inhibitors | A549 cell viability under PAO1 culture supernatant (A549 cells; 100 μM compound): increase in cell viability compared to the combination of the individual LasB (2) and LecA (1) inhibitors | cytotoxicity of PAO1 culture supernatant in presence of compound (A549 cells; 100 μM compound, compared with LasB-deficient strain control): reached that of the LasB-deficient strain
